{"source": "patent US10010629B2", "about": "“Compositions and methods for in vivo imaging” (The Regents of the University of California, priority 2010, dated 2018)", "key": {"3T3-L1-luc adipocytes": {"tested_on": "3T3-L1-luc adipocytes", "test": "Cell-based fatty acid uptake assay (bioluminescence), adipocytes", "details": "BSA-bound, 0-100 μM (comparison at 20 μM, 30 min)", "procedure": "(§1) Luciferase expressing cellular model (3T3-L1-Luc Cells): 3T3-L1 fibroblasts (ATCC) were stably transfected with the pGL4.51[luc2/CMV/Neo] vector (Promega). Clones with the highest level of luciferase expression were isolated and expanded.\nCell culture and treatment: 3T3-L1-luc fibroblasts were grown in DMEM containing 10% fetal bovine serum with 2 mM L-glutamine and 1% penicillin/streptomycin (DMEM/FBS). […] Differentiated cells were used in experiments on days 8-12 of differentiation.\nCell-based fatty acid uptake assays: 3T3-L1-luc adipocytes or fibroblasts were seeded into black-wall/clear-bottom-96-well plates (Costar) and treated with 100 μl of a fatty acid uptake buffer consisting of 0.1% BSA in Hank's balanced salt solution (HBSS) in addition to 2-100 μM of the compound. Plates were read immediately and luminescent images were acquired with a 5-minute exposure time back to back for 60 minutes. All cell-based assays utilized the same kinetic acquisition settings."}, "L2G85 mice [1]": {"tested_on": "L2G85 mice", "test": "Uptake after intravenous injection (albumin-bound), bioluminescence imaging", "details": "i.v., bound to/mixed with albumin"}, "[2]": {"tested_on": "FFA-luc uptake by 3T3-L1 adipocytes", "test": "FFA-SS-Luc competition assay", "assay_type": "cell-based", "procedure": "FFA-SS-Luc competition assay: 3T3-L1-luc adipocytes were seeded into black-wall/clear-bottom-96-well plates (Costar) and treated with 100 μl fatty acid uptake buffer including 20 μM FFA-luc and a titration of 0-2 mM oleate or methyl-oleate immediately prior to imaging."}, "L2G85 mice [3]": {"tested_on": "L2G85 mice", "test": "Intestinal uptake after oral gavage, bioluminescence imaging", "assay_type": "in vivo", "details": "for bioluminescent signal in the live animal after oral gavage: luciferase-expressing mice", "procedure": "To translate the imaging technique described above to in vivo systems, L2G85 mice were utilized. L2G85 mice express luciferase throughout their bodies. Initial experiments focused on detection of intestinal FFA uptake using oral gavages of the FFA-luc compound. […] This is consistent with known fatty acid uptake localization and kinetics.\nGavage of FFA-luc and FFA-S-luc: Anesthetized mice received a 50 μl volume gavage of 300 μM FFA-luc or FFA-S-luc (0.01 mg) in a vehicle of 1:1 PEG 400 and propylene glycol. Mice were awake for 5 minutes post-gavage to stimulate peristalsis before they were re-anesthetized for imaging. Mice were under constant isoflurane administration in the IVIS Spectrum In Vivo Imager and luminescent images were acquired with a 5-minute exposure back to back for 60 minutes.\nCT scans: Mice received a 100 μl volume gavage of 80 mg barium sulfate. After one hour, mice received a second barium sulfate gavage, immediately followed by a 50 μl volume gavage of 300 μM FFA-luc (0.01 mg) in a vehicle of 1:1 PEG 400 and propylene glycol. Mice were placed in a Mouse Imaging Shuttle Adaptor (Caliper Life Sciences) and luminescent images were acquired with a 5-minute exposure back to back for 60 minutes. Mice were then transferred to the Quantum FX μCT for CT imaging without disruption of position. Co-registration of luminescent and CT images were performed with Living Image software."}, "3T3-L1-luc fibroblasts": {"tested_on": "3T3-L1-luc fibroblasts", "test": "Cell-based fatty acid uptake assay (bioluminescence), undifferentiated fibroblasts", "details": "20 μM FFA-luc, 30 min", "procedure": "as §1\nCell culture and treatment: 3T3-L1-luc fibroblasts were grown in DMEM containing 10% fetal bovine serum with 2 mM L-glutamine and 1% penicillin/streptomycin (DMEM/FBS). A cell differentiation protocol was followed as previously described (Baldini et al., Cloning of a Rab3 isotype predominantly expressed in adipocytes. Proc Natl Acad Sci USA 89, 5049 (Jun. 1, 1992); Stahl et al., Insulin causes fatty acid transport protein translocation and enhanced fatty acid uptake in adipocytes. Dev Cell 2, 477 (2002)). […]\nCell-based fatty acid uptake assays: 3T3-L1-luc adipocytes or fibroblasts were seeded into black-wall/clear-bottom-96-well plates (Costar) and treated with 100 μl of a fatty acid uptake buffer consisting of 0.1% BSA in Hank's balanced salt solution (HBSS) in addition to 2-100 μM of the compound. Plates were read immediately and luminescent images were acquired with a 5-minute exposure time back to back for 60 minutes. […]"}, "L2G85 mice [4]": {"tested_on": "L2G85 mice", "details": "mouse, in vivo"}, "L2G85 mice [5]": {"tested_on": "L2G85 mice", "test": "BAT imaging after intraperitoneal injection", "assay_type": "in vivo", "details": "for signal from BAT (intact and excised) after intraperitoneal injection: i.p., 0.1% BSA in PBS, 30 min", "procedure": "Intraperitoneal injection: Anesthetized mice received a 100 μl volume intraperitoneal injection of 200 μM FFA-luc or FFA-S-luc (0.014 mg) bound to 0.1% BSA in PBS immediately prior to imaging. Luminescent images were acquired with a 3-minute exposure back to back for 30-minutes.\nBAT imaging: Anesthetized mice received 100 μl volume intraperitoneal injection of 200 μM FFA-luc (0.014 mg) immediately prior to imaging. Luminescent images were acquired with a 3-minute exposure back to back for 30-minutes. For BAT activation imaging, mice received intraperitoneal injections of the β-adrenergic stimulator CL316,243 at 1 mg/kg 20 minutes prior to the FFA-luc injection."}, "[6]": {"tested_on": "FFA-luc uptake by 3T3-L1-luc adipocytes", "test": "Insulin-mediated uptake of FFA-luc", "assay_type": "cell-based", "details": "20 μM FFA-luc", "procedure": "Insulin-mediated uptake of FFA-luc: 3T3-L1-luc adipocytes were seeded into black-wall/clear-bottom-96-well plates (Costar). One group of cells was serum starved in DMEM for 5 hours followed by the addition of […] fatty acid uptake buffer with 20 μM FFA-luc immediately prior to imaging. A second group of cells was treated with DMEM/fetal bovine serum (FBS) for 5 hours followed by the addition of 100 μl fatty acid uptake buffer with 20 μM FFA-luc and 1 ug/mL insulin immediately prior to imaging."}}, "note": "Entries after “also recorded” stand apart in the source; their conditions may differ.", "data": [{"molecule": "O=C(O)[C@H]1CSC(c2nc3ccc(O)cc3s2)=N1", "note": "[luciferin, reference compound]", "values": [{"measurement": "uptake by luciferase-expressing 3T3 L1 adipocytes (light signal / uptake rate)", "setting": "3T3-L1-luc adipocytes", "result": "significantly lower uptake rates"}, {"measurement": "bioluminescent signal in the live animal after intravenous injection", "setting": "L2G85 mice [1]", "result": "very rapid, bright, and delocalized signal"}]}, {"molecule": "CCCCCCCC/C=C\\CCCCCCCC(=O)OC", "note": "[methyl-oleate]", "values": [{"measurement": "competition with FFA-luc uptake by adipocytes", "setting": "[2]; 20 μM FFA-luc, excess competitor (0-2 mM titration)", "result": "did not compete and not"}]}, {"molecule": "O=C(O)CCCCCCCCCCCCCCCSSCCCOC(=O)Oc1ccc2nc(C3=N[C@@H](C(=O)O)CS3)sc2c1", "note": "[FFA-luc, (S)-2-(6-((3-((15-carboxypentadecyl)disulfanyl)propoxy)carbonyloxy)benzo[d]thiazol-2-yl)-4,5-dihydrothiazole-4-carboxylic acid]", "values": [{"measurement": "signal from small intestine, excised GI tract after oral gavage", "setting": "L2G85 mice [3]; ex vivo, small intestine / duodenum", "result": "robust signal; also recorded: strongest signal was generated by the proximal duodenum"}, {"measurement": "signal from stomach and colon, excised GI tract after oral gavage", "setting": "L2G85 mice [3]; ex vivo, stomach and colon", "result": "negative"}, {"measurement": "bioluminescent signal in the live animal after oral gavage", "setting": "L2G85 mice [3]", "result": "distinct signal emanating from an area consistent with the small intestine; also recorded: abdominal signal"}, {"measurement": "uptake kinetics by undifferentiated fibroblast-like 3T3 L1 cells versus adipocytes", "setting": "3T3-L1-luc fibroblasts", "result": "significantly lower"}, {"measurement": "uptake by luciferase-expressing 3T3 L1 adipocytes (light signal / uptake rate)", "setting": "3T3-L1-luc adipocytes", "result": "robust, dose-dependent signal"}, {"measurement": "uptake by excised organs after tail vein injection", "setting": "L2G85 mice [4]", "result": "taken up by several organs"}, {"measurement": "light production of removed interscapular brown adipose tissue after injection", "setting": "L2G85 mice [4]; iv", "result": "robust light production"}, {"measurement": "photon emission from isolated heart after intravenous injection", "setting": "L2G85 mice [4]; iv", "result": "high signal"}, {"measurement": "photon emission from isolated liver after intravenous injection", "setting": "L2G85 mice [4]; iv", "result": "low signal"}, {"measurement": "signal from BAT (intact and excised) after intraperitoneal injection", "setting": "L2G85 mice [5]", "result": "robust light signal"}]}, {"molecule": "insulin", "values": [{"measurement": "effect on FFA-luc uptake by adipocytes", "setting": "[6]", "result": "stimulatory effect"}]}, {"molecule": "COC(=O)CCCCCCCCCCCCCCCSSCCCOC(=O)Oc1ccc2nc(C3=N[C@@H](C(=O)O)CS3)sc2c1", "note": "[Me-FFA-luc, (S)-2-(6-((3-((16-methoxy-16-oxohexadecyl)disulfanyl)propoxy)carbonyloxy)benzo[d]thiazol-2-yl)-4,5-dihydrothiazole-4-carboxylic acid]", "values": [{"measurement": "uptake by luciferase-expressing 3T3 L1 adipocytes (light signal / uptake rate)", "setting": "3T3-L1-luc adipocytes; listed as methyl ester of the FFA-luc", "result": "slower, non-saturable uptake"}, {"measurement": "uptake by luciferase-expressing 3T3 L1 adipocytes (light signal / uptake rate)", "setting": "3T3-L1-luc adipocytes; listed as methyl-FFA-luc", "result": "significantly lower uptake rates"}]}, {"molecule": "C[C@H](Cc1ccc2c(c1)OC(C(=O)[O-])(C(=O)[O-])O2)NC[C@H](O)c1cccc(Cl)c1.[Na+].[Na+]", "note": "[CL316,243, reference compound]", "values": [{"measurement": "effect on compound 1 uptake by BAT", "setting": "L2G85 mice [5]; CL316,243 1 mg/kg i.p.", "result": "highly reproducible and significant increase"}]}, {"molecule": "CCCCCCCC/C=C\\CCCCCCCC(=O)O", "note": "[oleate]", "values": [{"measurement": "IC50", "setting": "[2]; Mus musculus, 3T3-L1, read-out: IC50, inhibition of uptake of FFA-luc by 3T3-L1 adipocytes", "result": 17, "unit": "µM"}]}, {"molecule": "O=C(O)CCCCCCCCCCCCCCCSCCCOC(=O)Oc1ccc2nc(C3=N[C@@H](C(=O)O)CS3)sc2c1", "note": "[FFA-S-luc, (S)-2-(6-((3-(15-carboxypentadecylthio)propoxy)carbonyloxy)benzo[d]thiazol-2-yl)-4,5-dihydrothiazole-4-carboxylic acid]", "values": [{"measurement": "bioluminescent signal in the live animal after oral gavage", "setting": "L2G85 mice [3]", "result": "weak and diffuse signal"}, {"measurement": "signal from BAT (intact and excised) after intraperitoneal injection", "setting": "L2G85 mice [5]", "result": "little or no signal"}]}]}
